Results reported in ChEMBL document CHEMBL4396938, “New amide linked dimeric 1,2,3-triazoles bearing aryloxy scaffolds as a potent antiproliferative agents and EGFR tyrosine kinase phosphorylation inhibitors” (Bioorg Med Chem Lett, 2019).

Experiments:
MCF7 [1] = test: Antiproliferative activity against human MCF7 cells assessed as growth inhibition at 1 uM incubated for 24 hrs by MTT assay (reference value: 0%); format: functional; details: MCF7, 24 h, read-out: GI
MCF7 [2] = test: Antiproliferative activity against human MCF7 cells assessed as reduction in cell growth incubated for 24 hrs by MTT assay; format: functional, cell-based; details: MCF7, 24 h
[3] = target: Epidermal growth factor receptor (Homo sapiens) (UniProt P00533); details: MCF7, at 10 µM
Epidermal growth factor receptor (Homo sapiens), sequence (P00533 whole entry): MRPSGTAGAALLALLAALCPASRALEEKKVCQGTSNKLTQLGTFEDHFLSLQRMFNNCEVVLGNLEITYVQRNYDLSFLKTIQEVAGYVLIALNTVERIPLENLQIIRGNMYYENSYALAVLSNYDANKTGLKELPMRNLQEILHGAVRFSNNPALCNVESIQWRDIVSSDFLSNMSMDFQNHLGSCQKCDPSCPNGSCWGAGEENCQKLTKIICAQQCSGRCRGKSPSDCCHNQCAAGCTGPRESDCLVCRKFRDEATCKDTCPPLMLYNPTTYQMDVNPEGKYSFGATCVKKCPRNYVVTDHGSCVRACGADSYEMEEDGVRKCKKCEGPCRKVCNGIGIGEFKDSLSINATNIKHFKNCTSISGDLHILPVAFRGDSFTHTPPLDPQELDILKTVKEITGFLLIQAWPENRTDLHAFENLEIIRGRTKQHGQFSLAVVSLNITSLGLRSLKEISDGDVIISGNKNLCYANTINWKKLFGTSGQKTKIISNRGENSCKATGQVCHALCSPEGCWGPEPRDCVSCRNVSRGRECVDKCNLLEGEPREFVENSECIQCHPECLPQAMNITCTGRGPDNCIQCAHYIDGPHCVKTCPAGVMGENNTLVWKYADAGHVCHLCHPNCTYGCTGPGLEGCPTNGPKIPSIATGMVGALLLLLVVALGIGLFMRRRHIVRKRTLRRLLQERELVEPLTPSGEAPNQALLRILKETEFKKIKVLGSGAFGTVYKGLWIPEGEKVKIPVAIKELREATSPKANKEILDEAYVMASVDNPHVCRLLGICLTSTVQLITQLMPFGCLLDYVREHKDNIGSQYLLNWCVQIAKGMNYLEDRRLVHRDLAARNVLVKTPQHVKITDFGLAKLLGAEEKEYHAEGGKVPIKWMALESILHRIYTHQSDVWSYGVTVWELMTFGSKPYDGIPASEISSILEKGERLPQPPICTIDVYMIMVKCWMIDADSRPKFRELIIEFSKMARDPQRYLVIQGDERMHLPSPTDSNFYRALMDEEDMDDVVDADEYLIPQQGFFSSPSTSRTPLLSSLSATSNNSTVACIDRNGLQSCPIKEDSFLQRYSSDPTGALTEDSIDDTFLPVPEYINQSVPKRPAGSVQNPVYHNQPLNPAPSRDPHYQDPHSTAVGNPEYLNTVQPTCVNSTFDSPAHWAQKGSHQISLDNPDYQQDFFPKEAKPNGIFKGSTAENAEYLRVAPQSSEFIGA
Description: Inhibition of EGFR in human MCF7 cells assessed as reduction in EGFR phosphorylation at 10 uM incubated for 48 hrs by Western blot analysis

A549 [4] = test: Antiproliferative activity against human A549 cells assessed as growth inhibition at 0.1 uM incubated for 24 hrs by MTT assay (reference value: 0%); format: functional; details: A549, 24 h, read-out: GI
A549 [5] = test: Antiproliferative activity against human A549 cells assessed as growth inhibition at 1 uM incubated for 24 hrs by MTT assay (reference value: 0%); format: functional; details: A549, 24 h, read-out: GI
MCF7 [6] = test: Antiproliferative activity against human MCF7 cells assessed as growth inhibition at 0.1 uM incubated for 24 hrs by MTT assay (reference value: 0%); format: functional; details: MCF7, 24 h, read-out: GI
A549 [7] = test: Antiproliferative activity against human A549 cells assessed as growth inhibition at 10 uM incubated for 24 hrs by MTT assay (reference value: 0%); format: functional; details: A549, 24 h, read-out: GI
MCF7 [8] = test: Antiproliferative activity against human MCF7 cells assessed as growth inhibition at 10 uM incubated for 24 hrs by MTT assay (reference value: 0%); format: functional; details: MCF7, 24 h, read-out: GI
[9] = Selectivity index, ratio of cytotoxic IC50 for human MCF10A cells to antiproliferative IC50 for human MCF7 cells; format: toxicity; details: MCF10A cells and MCF7 cells, read-out: Ratio IC50
MCF-10A = test: Cytotoxicity against human MCF10A cells assessed as reduction in cell viability incubated for 24 hrs by MTT assay; format: ADME, cell-based
A549 [10] = test: Antiproliferative activity against human A549 cells assessed as reduction in cell growth incubated for 24 hrs by MTT assay; format: functional, cell-based; details: A549, 24 h

Row | IC50 (MCF7 [2]) [µM] | inhibition [3] [%] | IC50 (A549 [10]) [µM] | SMILES | inhibition of growth at 1 µM (MCF7 [1]) [%] | inhibition of growth at 0.1 µM (A549 [4]) [%] | inhibition of growth at 1 µM (A549 [5]) [%] | inhibition of growth at 0.1 µM (MCF7 [6]) [%] | inhibition of growth at 10 µM (A549 [7]) [%] | inhibition of growth at 10 µM (MCF7 [8]) [%] | selectivity ratio [9] | IC50 (MCF-10A) [µM]
1 | 6.01 | 76.9 |  | Cc1ccc(NC(=O)Cn2cc(COc3cccc(OCc4cn(CC(=O)Nc5ccc(C)cc5)nn4)c3)nn2)cc1 | 9.47 | 0 | 7.51 | 5.16 | 34.1 | 82.6 |  | 
2 | 4.18 | 88.3 |  | COc1ccc(NC(=O)Cn2cc(COc3ccccc3OCc3cn(CC(=O)Nc4ccc(OC)cc4)nn3)nn2)cc1 | 24 | 5.57 | 6.56 | 18.4 | 15.4 | 96 | 8 | 33.4
3 | 2.8 | 72.7 | 5.61 | O=C(Cn1cc(COc2ccccc2OCc2cn(CC(=O)Nc3ccc(Cl)cc3)nn2)nn1)Nc1ccc(Cl)cc1 | 42.9 | 1.89 | 25.4 | 39 | 73.5 | 79.9 | 5 | 14
4 | 6.7 | 28.2 | 5.56 | Cc1ccc(NC(=O)Cn2cc(COc3ccccc3OCc3cn(CC(=O)Nc4ccc(C)cc4)nn3)nn2)cc1 | 25.7 | 8.92 | 12.8 | 25.4 | 86.6 | 63.8 |  | 
5 | 6.13 | 32.6 |  | O=C(Cn1cc(COc2cccc(OCc3cn(CC(=O)Nc4ccc(Cl)cc4)nn3)c2)nn1)Nc1ccc(Cl)cc1 | 31.7 | 1.16 | -0.17 | 16.2 | 3.36 | 64 |  | 
6 |  |  | 7.05 | O=C(Cn1cc(COc2cccc(OCc3cn(CC(=O)Nc4ccccc4)nn3)c2)nn1)Nc1ccccc1 | 13.8 | 11.4 | 10.8 | 14.5 | 69.2 | 22.1 |  | 
7 |  |  |  | O=C(Cn1cc(COc2ccccc2OCc2cn(CC(=O)Nc3ccccc3)nn2)nn1)Nc1ccccc1 | 12.1 | 0 | 6.8 | 11.3 | 44.3 | 12.9 |  | 
8 |  |  | 2.34 | COc1ccc(NC(=O)Cn2cc(COc3cccc(OCc4cn(CC(=O)Nc5ccc(OC)cc5)nn4)c3)nn2)cc1 | 11.1 | 7.26 | 42.8 | 11.9 | 94.5 | 33.3 |  | 
9 |  |  |  | O=C(Cn1cc(COc2ccccc2OCc2cn(CC(=O)Nc3ccc([N+](=O)[O-])cc3)nn2)nn1)Nc1ccc([N+](=O)[O-])cc1 | 15 | 5.9 | 10.7 | 14.2 | 11.8 | 12.7 |  | 
10 |  |  | 2.22 | O=C(Cn1cc(COc2cccc(OCc3cn(CC(=O)Nc4ccc([N+](=O)[O-])cc4)nn3)c2)nn1)Nc1ccc([N+](=O)[O-])cc1 | 4.58 | 25.5 | 42.4 | 4.96 | 98.6 | 5.44 |  | 
